Experimental findings from patent US20030203963A1, “Antimicrobial agent” (priority 2001, published 2003) are described below.

Assay [1] concerns Ps. fluorescens 3756. As to the kind of experiment: Chicken soup trial at 8° C. In kind it is cell-based, Pseudomonas fluorescens. The settings on record: chicken soup at 8° C. From the text: A local supermarket brand of cream of chicken soup was used as a model food system. 600 g packs were purchased from the local supermarket. This was a ‘fresh home-made type’ of soup that was stored in the chill cabinet, with a short shelf life. It was chosen because it is a rich, nutritious food system containing a range of food components including meat, dairy and vegetable.
Ingredients were labelled as: chicken stock (water, duck fat, chicken, salt, flavourings, yeast extracts, pork gelatine, glucose syrup, vegetable concentrate, milk protein, sugar, malto-dextrin, vegetable oil, citric acid, lactose, chicken fat), ilk, chicken (9%), cream (8%), onion, potato, vegetable oil, modified maize starch, wheat flour, lemon juice, salt, white pepper. pH 5.912. Protein: 3.3%; carbohydrate: 4.7%; fat: 7.2%; fibre: 0.2%; sodium: 0.1%
For the test the soup was mixed 2:1 in water (to facilitate sampling and mixing) and sterilised by autoclaving at 121° C. for 15 minutes. For each experiment the pH of the soup was recorded; this was between pH 5.79-5.88.
For TCS010412/8 (which was incubated at 8° C.), APP batch number APP20010213 (concentration 169 mg APP/ml) was used to prepare tests containing 0, 2000 or 4000 ppm APP. 5 g of filter-sterilised APP stock solution was added to 94 g of soup, mixed and then 1 ml of a diluted inoculum suspension (cells or spores as appropriate) was added to give a test inoculum level of 10^3 cfu/g. The soup mixture was shaken vigorously to ensure homogeneous distribution of the APP and micro-organisms. The tests were tested by viable count and then incubated at 8° C. and tested on a twice-weekly basis.
For TCS010521/8 (incubated at 8° C.), samples were prepared in 27.8 g quantities. 1.5 g of an APP stock solution was added, and the tests inoculated with 0.3 ml of a suitably diluted cell or spore suspension to give a final inoculum of ca. 10^3 cfu/g. APP was tested at 0, 500 and 1000 ppm, and batch number APP20010213 (at 169 mg/ml) was used. The tests were sampled by viable count and then incubated at 8° C. and tested on a twice-weekly basis.

Assay [2] concerns B. cereus 204. As to the kind of experiment: Test in cooked minced beef slurry. The format is cell-based, Bacillus cereus. The settings on record: minced beef slurry at 8° C., pH 6.24, TCM010619. The procedure:
(§1) 1 kg of minced beef, purchased from the local butcher, was mixed with 1 litre of BHI. 200 g portion of this meat slurry was autoclaved. When the meat had cooled, the pH was recorded (pH 6.24), and each pot was inoculated with 2.0 ml of 10^5 spores or cells and the meat re-mixed thoroughly. Each inoculated 200 g pot was distributed as 3×50 g portions. To each pot 1 ml of SDW, 5% or 10% APP (Batch No. APP20010215) was added, and the meat was again mixed thoroughly. An initial viable count was performed, the meat was incubated at 8° C. and sampled twice weekly. The pH of the cooked minced beef slurry was 6.24.

The subject of assay [3] is Cl. tyrobutyricum 2753. As to the kind of experiment: Sensitivity testing for Clostridium species in cooked meat medium. In kind it is cell-based. The settings on record: highest level tested 2000 ppm APP20010215, anaerobically at 37° C. The procedure: Stock solutions of APP215 (0.5, 1 and 2%) were prepared and filter-sterilised. Cooked meat medium (CMM, Oxoid) was prepared by distributing 1 g of the medium to individual test tubes, which were then filled with 8.9 ml water. After autoclaving 100 μl of the APP stock solutions were added, to give final concentrations of 0, 500, […] and 2000 ppm APP. The tests were inoculated with […] of Clostridium spores, to give an inoculum level of ca. 10 cfu/ml. The tubes were overlaid with 3 ml of 2% agar to maintain anaerobicity. The tests were incubated at 37° C., and examined daily for signs of growth (turbidity, gas production).

For assay [4], the system named is L. monocytogenes 272. As to the kind of experiment: Test in cooked minced beef slurry. The format is cell-based, Listeria monocytogenes. The procedure: as §1
Assay [5] relates to Lb. sake A10. Briefly: Test in cooked minced beef slurry. In kind it is cell-based, Lactobacillus sake. The procedure: as §1
The subject of assay [6] is Ps. fluorescens. Briefly: Test in milk. The settings on record: for Control for: 2000 ppm, TMGB010605. In kind it is cell-based, Pseudomonas fluorescens. The procedure:
8.9 ml samples of UHT milk containing 0.5% glucose and the indicator bromocresol purple (0.01%) were prepared and sterilised by autoclaving. The pH before APP addition was pH 6.65. Appropriate stock solutions of APP batch number APP20010215 (at 138 mg/ml) were prepared and filter sterilised. 1 ml of each was added to the milk to prepare tests containing 0, 1000 and 2000 ppm APP. Tests were then inoculated with 100 μl of diluted overnight broth cultures or spore suspensions to give a final inoculum level of ca. 10^3 cfu/ml. These and uninoculated tests were incubated at 20 and 8° C. and examined daily for visible changes compared to uninoculated control.

Assay [7] has as its system Lb. sake A10. Briefly: Test in cooked sausage meat slurry. The format is cell-based, Lactobacillus sake. The settings on record: for Effect on growth: cooked sausage meat slurry at 8° C., pH 6.2, TSM010605. From the text: 500 g of bologna sausage meat mixture was mixed with 500 g Brain Heart Infusion broth (BHIB) to make a homogeneous slurry. The bologna sausage meat mix comprised (g per kg): lean beef 320; lean pork 202; lard 250; water 40; glucose 5; starch 155; spice mix 3.75; sodium glutamate 0.5; sodium erythorbate 0.545; sodium di-phosphate 3; NaCl 20; sodium nitrite 0.15. 200 g samples of the meat slurry were autoclaved. While the meat was still warm it was re-mixed thoroughly. When the meat had cooled it was inoculated with 2 ml of 10^5 cfu/ml spore or cell suspension, and re-mixed again. Each inoculated meat sample was divided into 3×50 g samples, and 1 ml of either SDW, 2.5% or 5% APP solution (batch number APP 20010215) was added to prepare meat samples containing 0, 500 and 1000 ppm APP. The meat slurry was again shaken thoroughly to ensure even mixing, an initial viable count was taken and the samples incubated at 8° C. Samples were taken at twice-weekly intervals. The pH of the sausage meat slurry was 6.2.

The mark [8] stands for this setting: 2000 ppm, minced beef slurry at 8° C., pH 6.24, TCM010619.

Molecules are shown by their SMILES.

As to `O=C1CC(CO)OC=C1O` (centres unmarked) [APP, Ascopyrone P], the Effect on growth entry in assay [1] (500 ppm, TCSM010521, APP215) was “Little effect with 500 ppm”; in assay [2] (1000 ppm) it was 1000 ppm extended lag phase; in assay [4] (setting [8]) it was “No significant inhibition by 2000 ppm”; in assay [5] (setting [8]) it was “No effect with 2000 ppm”; in assay [7] (500 ppm), “No effect with 500 and 1000 ppm”; in assay [7] (1000 ppm), “No effect with 500 and 1000 ppm”. In addition, in assay [1] (1000 ppm, TCSM010521, APP215), the Counts undetectable result is reported as “At 1000 ppm counts undetectable >3 d”. Further, the “Total inhibition for” value in assay [1] (1000 ppm, TCSM010521, APP215) is “Total inhibition by 1000 ppm for >27 days”; in assay [1] (2000 ppm, TCS010412, APP20010213) it was “Total inhibition by 2000 and 4000 ppm for >60 days”; in assay [1] (4000 ppm, TCS010412, APP20010213), “Total inhibition by 2000 and 4000 ppm for >60 days”. For the same compound, the “Counts undetectable from day” value in assay [1] (APP samples (2000, 4000 ppm), TCS010412, APP20010213) is reported as “Counts undetectable from day 1 in APP samples”. The “Growth to 10^6 delayed by” value in assay [2] (2000 ppm) is given as 2000 ppm delayed growth to 10^6 by 7 d. Moreover, in assay [3], the Growth inhibition entry is given as “No growth inhibition”. The “No inhibition (effect on growth of target organism by 2000 ppm APP)” value is on record as “(L. monocytogenes)” in assay [4] (Cooked minced beef slurry at 8° C. pH 6.24, organism printed in brackets) and “Lb. sake” in assay [5] (Cooked minced beef slurry at 8° C. pH 6.24). Further, the “Control for” value was above 7 days in assay [6] (milk at 8° C.) and 2 to 3 days in assay [6] (milk at 20° C.). Besides, the “Total inhibition (effect on growth of target organism by 2000 ppm APP)” value in assay [6] (Milk at 8° C. pH 6.65) is reported as “Ps. fluorescens”. The “Partial inhibition (effect on growth of target organism by 2000 ppm APP)” value in assay [6] (Milk at 20° C. pH 6.65) is “Ps. fluorescens”. In addition, the “No inhibition (effect on growth of target organism by APP)” value in assay [7] (Cooked sausage meat slurry at 8° C. pH 6.2, (1000)) is given as “Lb. sake (1000)”.
